From patent US6833456B2, “Indolyl-urea derivatives of thienopyridines useful as antiangiogenic agents, and methods for their use” (Agouron Pharmaceuticals, Inc., priority 2002, dated 2004)
Several values for one entry are separate records, joined by “and”; a condition that tells them apart may be missing. Equal values may be shown once.

Tests used:
[1] = target: T1, unphosphorylated VEGF-R2Δ50 (FLVK) (Homo sapiens, UniProt P35968, DEL940-989/E990V); assay: VEGF-R2 coupled spectrophotometric assay, unphosphorylated construct (FLVK); assay type: biochemical
T1 construct: VEGF-R2Δ50 contains residues 806-939 and 990-1171; made in house; host or cells: baculovirus/insect cell system
T1 sequence (P35968 with tags, fused parts or gaps DEL940-989/E990V limits assumed): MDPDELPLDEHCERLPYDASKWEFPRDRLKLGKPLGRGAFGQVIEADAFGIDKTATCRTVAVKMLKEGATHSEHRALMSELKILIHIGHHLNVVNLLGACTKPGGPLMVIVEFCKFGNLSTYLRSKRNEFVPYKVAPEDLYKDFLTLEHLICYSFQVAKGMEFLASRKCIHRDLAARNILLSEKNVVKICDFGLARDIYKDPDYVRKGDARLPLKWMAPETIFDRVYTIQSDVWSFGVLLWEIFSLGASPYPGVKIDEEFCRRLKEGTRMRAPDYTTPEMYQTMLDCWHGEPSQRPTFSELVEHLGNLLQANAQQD
Outline: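 Human VEGF-R2Δ50 cytosolic kinase (residues 806-939/990-1171, E990V), baculovirus-expressed, unphosphorylated form. PK/LDH-coupled NADH oxidation at 340 nm with 20 mM poly(E4Y1), 3 mM ATP, 60 mM MgCl2, 2 mM MnCl2, 200 mM HEPES pH 7.5, 5-40 nM enzyme; Ki fitted by Morrison equation.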

[2] = test system: human umbilical vein endothelial cells (HUVEC); assay: HUVEC+VEGF proliferation assay; assay type: cell-based; conditions: VEGF 6 ng/mL, MTT
Procedure: This assay determines the ability of a test compound to inhibit the growth factor-stimulated proliferation of human umbilical vein endothelial cells (“HUVEC”). HUVEC cells (passage 3-4, Clonetics, Corp.) were thawed into EGM2 culture medium (Clonetics Corp) in T75 flasks. Fresh EGM2 medium was added to the flasks 24 hours later. Four or five days later, cells were exposed to another culture medium (F12K medium supplemented with 10% fetal bovine serum (FBS), 60 μg/mL endothelial cell growth supplement (ECGS), and 0.1 mg/mL heparin). Exponentially-growing HUVEC cells were used in experiments thereafter. Ten to twelve thousand HUVEC cells were plated in 96-well dishes in 100 μl of rich, culture medium (described above). The cells were allowed to attach for 24 hours in this medium. The medium was then removed by aspiration and 105 μl of starvation media (F12K+1% FBS) was added to each well. After 24 hours, 15 μl of test agent dissolved in 1% DMSO in starvation medium or this vehicle alone was added into each treatment well; the final DMSO concentration was 0.1%. One hour later, 30 μl of VEGF (30 ng/mL) in starvation media was added to all wells except those containing untreated controls; the final VEGF concentration was 6 ng/mL. Cellular proliferation was quantified 72 hours later by MTT dye reduction, at which time cells were exposed for 4 hours MTT (Promega Corp.). Dye reduction was stopped by addition of a stop solution (Promega Corp.) and absorbance at 595 nm was determined on a 96-well spectrophotometer plate reader.

PDGFRβ = target: T2, PDGFRβ (Homo sapiens, UniProt P09619); assay: PAE-PDGFRβ phosphorylation in PAE-PDGFRB cells assay; assay type: cell-based; conditions: PAE cells overexpressing human PDGFRβ, PDGF-BB stimulated; read-out: PAE PDGFR autophos IC50
T2 construct: expressed in transfected cells; host or cells: porcine aorta endothelial (PAE) cells
T2 sequence (P09619 33-1106): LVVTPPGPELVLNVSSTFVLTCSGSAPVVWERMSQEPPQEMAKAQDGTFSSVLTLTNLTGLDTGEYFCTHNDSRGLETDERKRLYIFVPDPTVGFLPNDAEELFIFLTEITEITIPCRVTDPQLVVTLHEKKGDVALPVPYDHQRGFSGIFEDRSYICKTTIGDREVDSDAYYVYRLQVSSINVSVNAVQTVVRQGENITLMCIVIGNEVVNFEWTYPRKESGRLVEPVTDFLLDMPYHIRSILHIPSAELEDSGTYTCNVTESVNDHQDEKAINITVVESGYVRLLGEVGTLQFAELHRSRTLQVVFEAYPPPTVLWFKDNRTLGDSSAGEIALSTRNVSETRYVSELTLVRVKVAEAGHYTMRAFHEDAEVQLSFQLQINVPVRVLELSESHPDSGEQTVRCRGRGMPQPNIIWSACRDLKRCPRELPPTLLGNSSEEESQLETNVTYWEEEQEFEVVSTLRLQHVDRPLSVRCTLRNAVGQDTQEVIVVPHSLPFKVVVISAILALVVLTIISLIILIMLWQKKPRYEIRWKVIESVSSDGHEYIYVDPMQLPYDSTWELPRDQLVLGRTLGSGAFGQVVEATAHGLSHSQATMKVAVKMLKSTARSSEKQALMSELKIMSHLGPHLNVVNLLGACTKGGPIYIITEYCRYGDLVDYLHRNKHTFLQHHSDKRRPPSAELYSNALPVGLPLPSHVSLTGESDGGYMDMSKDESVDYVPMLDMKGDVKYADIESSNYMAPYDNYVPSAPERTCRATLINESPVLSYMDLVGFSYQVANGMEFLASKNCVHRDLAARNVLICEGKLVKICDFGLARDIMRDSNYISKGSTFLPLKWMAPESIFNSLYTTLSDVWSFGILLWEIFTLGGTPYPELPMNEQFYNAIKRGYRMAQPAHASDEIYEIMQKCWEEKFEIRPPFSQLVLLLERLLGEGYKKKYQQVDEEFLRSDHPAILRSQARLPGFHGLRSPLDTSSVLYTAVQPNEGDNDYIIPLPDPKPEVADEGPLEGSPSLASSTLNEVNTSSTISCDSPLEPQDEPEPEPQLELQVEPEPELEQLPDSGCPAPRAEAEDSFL
Procedure: This assay determines the ability of a test compound to inhibit the autophosphorylation of PDGFRβ in porcine aorta endothelial (PAE)-PDGFRβ cells. PAE cells that overexpress human PDGFRβ were used in this assay. The cells were cultured in Ham's F12 media supplemented with 10% fetal bovine serum (FBS) and 400 ug/ml G418. Twenty thousands cells were seeded in each well of a 96-well plate in 50 μL of growth media and allowed to attach for 6 hours at 37° C. Cells were then exposed to the starvation media (Ham's F12 media supplemented with 0.1% FBS) for 16 hours. After the starvation period was over, 10 μL of test agent in 5% DMSO in starvation media were added to the test wells and 10 μL of the vehicle (5% DMSO in starvation media) were added into the control wells. The final DMSO concentration in each well was 0.5%. Plates were incubated at 37° C. for 1 hour and the cells were then stimulated with 1 μg/mL PDGF-BB (R & D System) in the presence of 2 mM Na3VO4 for 8 minutes. The cells were washed once with 1 mm Na3VO4 in HBSS and lysed by adding 50 μL per well of lysis buffer. One hundred μL of dilution buffer were then added to each well and the diluted cell lysate was transferred to a 96-well goat ant-rabbit coated plate (Pierce), which was pre-coated with Rabbit anti Human PDGFRβ antibody (Santa Cruz). The plates were incubated at room temperature for 2 hours and washed seven times with 1% Tween 20 in PBS. HRP-PY20 (Santa Cruz) was diluted and added to the plate for a 30-minute incubation. Plates were then washed again and TMB peroxidase substrate (Kirkegaard & Perry) was added for a 10-minute incubation. One hundred μL of 0.09 N H2SO4 was added into each well of the 96-well plate to stop the reaction. Phosphorylation status was assessed by spectrophotometer reading at 450 nm. IC50 values were calculated by curve fitting using a four-parameter analysis.

Mouse PK assay = assay type: in vivo, B6 female mice; conditions: for AUC / Cmax: female, B6, mouse, plasma; for AUC / Cmax / Mouse Cmin, po: po; for Cmax: read-out: Mouse Cmax, po ng-h/mL
Procedure: The pharmacokinetics (e.g., absorption and elimination) of drugs in mice were analyzed using the following experiment. Test compounds were formulated as a suspension in a 30:70 (PEG 400: acidified H2O) vehicle. This solution was administered orally (p.o.) and intraperitoneally (i.p.) at 50 mg/kg to two distinct groups (n=4) of B6 female mice. Blood samples were collected via an orbital bleed at time points: 0 hour (pre-dose), 0.5 hr, 1.0 hr, 2.0 hr, and 4.0 hr post dose. Plasma was obtained from each sample by centrifugation at 2500 rpm for 5 min. Test compound was extracted from the plasma by an organic protein precipitation method. For each time bleed, 50 μL of plasma was combined with 1.0 mL of acetonitrile, vortexed for 2 min. and then spun at 4000 rpm for 15 min. to precipitate the protein and extract out the test compound. Next, the acetonitrile supernatant (the extract containing test compound) was poured into new test tubes and evaporated on a hot plate (25° C.) under a steam of N2 gas. To each tube containing the dried test compound extract, 125 μL of mobile phase (60:40, 0.025 M NH4H2PO4+2.5 mL/L TEA:acetonitrile) was added. The test compound was resuspended in the mobile phase by vortexing and more protein was removed by centrifugation at 4000 rpm for 5 min. Each sample was poured into an HPLC vial for test compound analysis on an Hewlett Packard 1100 series HPLC with UV detection. From each sample, 95 μL was injected onto a Phenomenex-Prodigy reverse phase C-18, 150×3.2 mm column and eluted with a 45-50% acetonitrile gradient run over 10 min. Test-compound plasma concentrations (μg/mL) were determined by a comparison to standard curve (peak area vs. conc. μg/mL) using known concentrations of test compound extracted from plasma samples in the manner described above. Along with the standards and unknowns, three groups (n=4) of quality controls (0.25 μg/mL, 1.5 μg/mL, and 7.5 μg/mL) were run to insure the consistency of the analysis. […] The quantitated test samples were plotted for visual display using Kaleidagraph software and their pharmacokinetic parameters were determined using WIN NONLIN software.

Row | Ki [1] [nM] | inhibition at 0.05 µM ([1]; percent inhibition at 50 nM) [%] | IC50 (PDGFRβ) | AUC (Mouse PK assay; 50 mg/kg) [ng·h/mL] | Cmax (Mouse PK assay; 50 mg/kg, p.o., 50 mg/kg) [ng/mL] | Mouse Cmin, po (Mouse PK assay) [ng/mL] | FLVK (% @ 50 (nM)) ([1]; percent inhibition at 50 nM) [%] | Mouse PK AUC, po ng-h/mL (Mouse PK assay; p.o., 50 mg/kg) [ng·h/mL] | Structure (SMILES) | IC50 ([2]; Homo sapiens, HUVEC, 72 h) [nM] | IC50 ([2]; 72 hours) [nM]
1 | 0.301 | 99 | 19 nM | 2390 | 920 | 204 | – | – | CCCNC(=O)n1c(C)cc2cc(Oc3ccnc4cc(C(=O)N5CC[C@@H](N(C)C)C5)sc34)ccc21 [Example 8h, 5-[(2-{[(3R)-3-(Dimethylamino)pyrrolidin-1-yl]carbonyl}thieno[3,2-b]pyridin-7-yl)oxy]-2-methyl-N-propyl-1H-indole-1-carboxamide] | 0.16 | –
2 | 0.605 | 99 | 7.7 nM | 36200 | 19700 | – | – | – | C#CCNC(=O)n1c(C)cc2c(F)c(Oc3ccnc4cc(C(=O)N5CCC[C@H]5COC)sc34)ccc21 [Example 5c, 4-Fluoro-5-[2-(2S-methoxymethyl-pyrrolidine-1-carbonyl)-thieno[3,2-b]pyridin-7-yloxy]-2-methyl-indole-1-carboxylic acid prop-2-ynylamide] | 0.115 | –
3 | 0.21 | – | 175 nM | – | – | 4 | 97 | 1837 | CO[C@H]1CCN(C(=O)c2cc3nccc(Nc4ccc5c(c4)cc(C)n5C(=O)NC4CC4)c3s2)C1 [Example 1f, 5-[2-(3S-Methoxy-pyrrolidine-1-carbonyl)-thieno[3,2-b]pyridin-7-ylamino]-2-methyl-indole-1-carboxylic acid cyclopropylamide] | – | 0.68
4 | 0.271 | 99 | 3.8 nM | – | – | – | – | – | CO[C@@H]1CCN(C(=O)c2cc3nccc(Oc4ccc5c(c4)cc(C)n5C(=O)NCC#CC4CC4)c3s2)C1 [Example 4m, 5-[2-(3R-Methoxy-pyrrolidine-1-carbonyl)-thieno[3,2-b]pyridin-7-yloxy]-2-methyl-indole-1-carboxylic acid (3-cyclopropyl-prop-2-ynyl)-amide] | 0.37 | –
5 | 0.16 | 99 | 3.8 nM | – | – | – | – | – | CNC(=O)n1c(C)cc2c(F)c(Oc3ccnc4cc(C(=O)N5CCC[C@H]5COC)sc34)ccc21 [Example 5a, 4-Fluoro-5-[2-(2S-methoxymethyl-pyrrolidine-1-carbonyl)-thieno[3,2-b]pyridin-7-yloxy]-2-methyl-indole-1-carboxylic acid methylamide] | 0.14 | –
6 | 0.258 | 99 | 31 nM | – | – | – | – | – | CCNC(=O)n1c(C)cc2cc(Oc3ccnc4cc(C(=O)N5CC[C@H](O)C5)sc34)ccc21 [Example 9h, 5-[2-(3S-Hydroxy-pyrrolidine-1-carbonyl)-thieno[3,2-b]pyridin-7-yloxy]-2-methyl-indole-1-carboxylic acid ethylamide] | 0.9 | –
7 | 0.17 | 99 | > 1000 nM | 6 | 5 | 0 | – | – | Cc1cc2cc(Nc3ccnc4cc(C(=O)N5CC[C@@H](O)C5)sc34)ccc2n1C(=O)NC1CC1 [Example 1q, 5-[2-(3R-Hydroxy-pyrrolidine-1-carbonyl)-thieno[3,2-b]pyridin-7-ylamino]-2-methyl-indole-1-carboxylic acid cyclopropylamide] | 0.481 | –
8 | 0.64 | 93 | 155 nM and 120 nM | – | – | – | – | – | CNC(=O)n1c(C)cc2cc(Nc3ccnc4cc(C(=O)N5C[C@H](OC)[C@@H](OC)C5)sc34)ccc21 [Example 1r, 5-[2-(3S,4S-Dimethoxy-pyrrolidine-1-carbonyl)-thieno[3,2-b]pyridin-7-ylamino]-2-methyl-indole-1-carboxylic acid methylamide] | 0.301 | –
9 | 0.477 | 99 | 26 nM and 34 nM | – | – | – | – | – | Cc1cc2cc(Oc3ccnc4cc(C(=O)N5CC[C@@H](N(C)C)C5)sc34)ccc2n1C(=O)NCCCO [Example 8i, 5-[(2-{[(3R)-3-(Dimethylamino)pyrrolidin-1-yl]carbonyl}thieno[3,2-b]pyridin-7-yl)oxy]-N-(3-hydroxypropyl)-2-methyl-1H-indole-1-carboxamide] | 0.17 | –
10 | 0.45 | 99 | 11.2 nM | 1170 | 321 | 65 | – | – | C#CCNC(=O)n1c(C)cc2c(F)c(Oc3ccnc4cc(C(=O)N5CC[C@H](OC)C5)sc34)ccc21 [Example 5g, 4-Fluoro-5-[2-(3S-methoxy-pyrrolidine-1-carbonyl)-thieno[3,2-b]pyridin-7-yloxy]-2-methyl-indole-1-carboxylic acid prop-2-ynylamide] | 0.15 | –
